Patent EP0666077A1, “ANTI-MRSA COMPOSITION” (MEIJI SEIKA KABUSHIKI KAISHA, priority 1993, dated 1995)
≈ marks a conversion by molar mass, not a printed value.

Key:
S. aureus (MRSA) -389 = experiment: Anti-bacterial activity test 1: minimum growth inhibiting concentration (MIC); format: cell-based; conditions: Staphylococcus aureus, strain -389 (PRC series), read-out: Anti-bacterial activity against MRSA MIC
Description: (§1) Minimum growth inhibiting concentration (MIC) of the compound represented by the general formula (I) was determined against some typical MRSA strains.

S. aureus (MRSA) -400 = experiment: as above; format: cell-based; conditions: Staphylococcus aureus, strain -400 (PRC series), read-out: Anti-bacterial activity against MRSA MIC
Description: as §1

S. aureus (MRSA) -390 = experiment: as above; format: cell-based; conditions: Staphylococcus aureus, strain -390 (PRC series), read-out: Anti-bacterial activity against MRSA MIC
Description: as §1

S. aureus (MRSA) -385 = experiment: as above; format: cell-based; conditions: Staphylococcus aureus, strain -385 (PRC series), read-out: Anti-bacterial activity against MRSA MIC
Description: as §1

S. aureus (MRSA) -395 = experiment: as above; format: cell-based; conditions: Staphylococcus aureus, strain -395 (PRC series), read-out: Anti-bacterial activity against MRSA MIC
Description: as §1

S. aureus (MRSA) PRC-376 = experiment: as above; format: cell-based; conditions: Staphylococcus aureus, strain PRC-376, read-out: Anti-bacterial activity against MRSA MIC
Description: as §1

S. aureus (MRSA) -381 = experiment: as above; format: cell-based; conditions: Staphylococcus aureus, strain -381 (PRC series), read-out: Anti-bacterial activity against MRSA MIC
Description: as §1

[1] = test system: methicillin resistant Staphylococcus aureus (TY-5548, higher resistant bacterium); experiment: Anti-bacterial activity test 4: propagation under cup with dust adsorbing oil on agar plate; format: cell-based; conditions: dust adsorbing oil incorporated with 0.1% of compound; 100 µl in cup; 4°C overnight, then 37°C for 24 hours
Description: Anti-MRSA activity was afforded to a dust adsorbing oil for a dust control mop as described below.
Only non-volatile ingredients were recovered from a dust adsorbing oil for a mop by spraying (manufactured by Yamazaki Sangyo), and incorporated with 0.1% of Compound (V).
A 200 µl of a suspension containing methicillin resistant Staphylococcus aureus (TY-5548, higher resistant bacterium) in a level of 1 x 10⁵ - 10⁴ cells/ml was smeared on a plate count agar, on which stainless steel cups having a diameter of 12 mm were placed to add 100 µl of the oil solution prepared above. The plate thus having inoculated the bacterium was left standing at 4°C overnight and then cultured at 37°C for 24 hours. The propagation of the bacterium under the cup was evaluated.

[2] = test system: methicillin (DMPPC) resistant Staphylococcus aureus TY-5548; experiment: Anti-bacterial activity test 2: viable cell count on processed cotton cloth; format: cell-based; conditions: stated for the test as a whole (TY-5548 and TY-5552)
Description: A cotton cloth was subjected to anti-bacterial processing with the compound of the general formula (I). The processing was carried out by applying a solution containing 0.05% of the compound of the general formula (I) and 1% of an organic silicone (fiber finish, Miki Riken) on the cotton cloth with the padding method. A cotton cloth (30 cm x 40 cm) was padded so that the pick-up was 70%, dried with hot air at 110°C for 3 minutes and further cured at 170°C for 1 minute. The anti-bacterial effect of the cotton cloth subjected to the anti-bacterial processing was evaluated with methicillin (DMPPC) resistant Staphylococcus aureus by the following method. The strains were selected on the basis of their resistances, and TY-5548 was selected as a higher resistant strain and TY-5552 as a lower resistant strain.
A 0.2 g sample of the cotton cloth was weighed, placed in a screw capped 30 ml vial and sterilized under pressure. The test strains had been pre-cultured and diluted with nutrient broth for inoculation to 5 - 30 x 10⁵ cells/ml. This culture medium was uniformly inoculated at an amount of 200 µl with a micropipette to the sample cloth, which was then incubated in an incubator at 37°C for 18 hours. […] The colonies grown were counted to calculate the viable cells in the sample piece.

[3] = test system: TY-5548, higher resistant bacterium; experiment: Anti-bacterial activity test 5: viable cell count on paint film; format: cell-based, Staphylococcus aureus; conditions: paint film with 0.1% of compound
Description: The compound of the general formula (I) was blended with a paint on the assumption that the paint is used around the medical facilities like in the case of Anti-bacterial activity test 3.
With an oil paint (manufactured by Shinto Toryo) 0.1% of the compound of the general formula (I) was mixed, and an appropriate dilution with thinner was spread over a stainless steel plate having a size of 3 cm x 3 cm and air-dried. The sample on which the film had been formed was sterilized with an alcohol and dried. The sample plate was placed in a glass dish, inoculated with 200 µl of the inoculation medium in Anti-bacterial activity test 3 (TY-5548, higher resistant bacterium) over the surface of the film and incubated at 37°C for 18 hours. After the incubation, 20 ml of a sterile physiological saline buffer was added to the medium to disperse the viable cells into the medium, and then the viable cells on the test piece were calculated in the same manner as in Anti-bacterial activity test 2.

Structure (SMILES)	MIC (S. aureus (MRSA) -389) [µg/mL]	MIC (S. aureus (MRSA) -400) [µg/mL]	MIC (S. aureus (MRSA) -390) [µg/mL]	MIC (S. aureus (MRSA) -385) [µg/mL]	MIC (S. aureus (MRSA) -395) [µg/mL]	MIC (S. aureus (MRSA) PRC-376) [µg/mL]	MIC (S. aureus (MRSA) -381) [µg/mL]	propagation of the bacterium under the cup [1]	cell reducing rate of the inoculated cells [2] [%]	cell reducing rate of the inoculated cells [3] [%]
Clc1ccccc1C(Cn1ccnc1)OCc1ccccc1 (centres unmarked) [o-Cl, H, H, H, 1-[2-benzyloxy-2-(2-chlorophenyl)-ethyl]imidazole]	100 (≈ 320 µM)	50 (≈ 160 µM)	100 (≈ 320 µM)	100 (≈ 320 µM)	100 (≈ 320 µM)	100 (≈ 320 µM)	50 (≈ 160 µM)	–	–	–
Clc1ccc(COC(Cn2ccnc2)c2ccccc2Cl)cc1 (centres unmarked) [o-Cl, H, p-Cl, H, 1-[2-(4-chlorobenzyloxy)-2-(2-chlorophenyl)-ethyl]imidazole]	25 (≈ 72 µM)	12.5 (≈ 36 µM)	25 (≈ 72 µM)	25 (≈ 72 µM)	25 (≈ 72 µM)	25 (≈ 72 µM)	12.5 (≈ 36 µM)	no propagation was observed	≥ 99.9	≥ 99.9
Clc1ccc(COC(Cn2ccnc2)c2ccc(Cl)cc2)cc1 (centres unmarked) [p-Cl, H, p-Cl, H, 1-[2-(4-chlorobenzyloxy)-2-(4-chlorophenyl)-ethyl]imidazole]	50 (≈ 144 µM)	25 (≈ 72 µM)	50 (≈ 144 µM)	50 (≈ 144 µM)	50 (≈ 144 µM)	50 (≈ 144 µM)	25 (≈ 72 µM)	–	–	–

Further molecules by falling MIC (S. aureus (MRSA) -389), results first:

MIC (S. aureus (MRSA) -389) [µg/mL]	MIC (S. aureus (MRSA) -400) [µg/mL]	MIC (S. aureus (MRSA) -390) [µg/mL]	MIC (S. aureus (MRSA) -385) [µg/mL]	MIC (S. aureus (MRSA) -395) [µg/mL]	MIC (S. aureus (MRSA) PRC-376) [µg/mL]	MIC (S. aureus (MRSA) -381) [µg/mL]	Structure (SMILES)	propagation of the bacterium under the cup [1]	cell reducing rate of the inoculated cells [2] [%]	cell reducing rate of the inoculated cells [3] [%]
50 (≈ 144 µM)	25 (≈ 72 µM)	25 (≈ 72 µM)	25 (≈ 72 µM)	25 (≈ 72 µM)	25 (≈ 72 µM)	25 (≈ 72 µM)	Clc1ccccc1COC(Cn1ccnc1)c1ccccc1Cl (centres unmarked) [o-Cl, H, o-Cl, H, 1-[2-(2-chlorobenzyloxy)-2-(2-chlorophenyl)-ethyl]imidazole]	–	–	–
50 (≈ 144 µM)	25 (≈ 72 µM)	50 (≈ 144 µM)	50 (≈ 144 µM)	50 (≈ 144 µM)	50 (≈ 144 µM)	25 (≈ 72 µM)	Clc1ccc(C(Cn2ccnc2)OCc2ccccc2Cl)cc1 (centres unmarked) [p-Cl, H, o-Cl, H, 1-[2-(2-chlorobenzyloxy)-2-(4-chlorophenyl)-ethyl]imidazole]	–	–	–
